From patent US11547697B2, “Heterocyclic compounds and uses thereof” (MILLENNIUM PHARMACEUTICALS, INC., priority 2009, dated 2023) come the findings set out here.

SMILES strings stand for the structures. Like-named read-outs stand apart in the source and are kept apart here.

What all share (format): biochemical
Assay [1] deals with p110γ (Homo sapiens (Human), UniProt P48736). The assay is described as follows: PI 3-Kinase (human) HTRF assay, p110γ.
Description: (§1) An exemplary system is PI 3-Kinase (human) HTRF™ Assay from Upstate. […] Briefly, the assay is a time resolved FRET assay that indirectly measures PIP3 product formed by the activity of a PI3-K. The kinase reaction is performed in a microtitre plate (e.g., a 384 well microtitre plate). The total reaction volume is approximately 20 ul per well. In the first step, each well receives 2 ul of test compound in 20% dimethylsulphoxide resulting in a 2% DMSO final concentration. Next, approximately 14.5 ul of a kinase/PIP2 mixture (diluted in 1× reaction buffer) is added per well for a final concentration of 0.25-0.3 ug/ml kinase and 10 μM PIP2. The plate is sealed and incubated for 15 minutes at room temperature. To start the reaction, 3.5 ul of ATP (diluted in 1× reaction buffer) is added per well for a final concentration of 10 μM ATP. The plate is sealed and incubated for 1 hour at room temperature. The reaction is stopped by adding 5 ul of Stop Solution per well and then 5 ul of Detection Mix is added per well. The plate is sealed, incubated for 1 hour at room temperature, and then read on an appropriate plate reader. Data is analyzed and IC50s are generated using GraphPad Prism 5. […] For PI3K α, β, δ, and γ, the nM concentration of inhibitor to reach IC50 is provided.
The target of assay [2] is p110α/p85α (Homo sapiens (Human), UniProt P42336). The assay is described as follows: PI 3-Kinase (human) HTRF assay, p110α/p85α.
Chain of p110α/p85α (P42336 whole entry): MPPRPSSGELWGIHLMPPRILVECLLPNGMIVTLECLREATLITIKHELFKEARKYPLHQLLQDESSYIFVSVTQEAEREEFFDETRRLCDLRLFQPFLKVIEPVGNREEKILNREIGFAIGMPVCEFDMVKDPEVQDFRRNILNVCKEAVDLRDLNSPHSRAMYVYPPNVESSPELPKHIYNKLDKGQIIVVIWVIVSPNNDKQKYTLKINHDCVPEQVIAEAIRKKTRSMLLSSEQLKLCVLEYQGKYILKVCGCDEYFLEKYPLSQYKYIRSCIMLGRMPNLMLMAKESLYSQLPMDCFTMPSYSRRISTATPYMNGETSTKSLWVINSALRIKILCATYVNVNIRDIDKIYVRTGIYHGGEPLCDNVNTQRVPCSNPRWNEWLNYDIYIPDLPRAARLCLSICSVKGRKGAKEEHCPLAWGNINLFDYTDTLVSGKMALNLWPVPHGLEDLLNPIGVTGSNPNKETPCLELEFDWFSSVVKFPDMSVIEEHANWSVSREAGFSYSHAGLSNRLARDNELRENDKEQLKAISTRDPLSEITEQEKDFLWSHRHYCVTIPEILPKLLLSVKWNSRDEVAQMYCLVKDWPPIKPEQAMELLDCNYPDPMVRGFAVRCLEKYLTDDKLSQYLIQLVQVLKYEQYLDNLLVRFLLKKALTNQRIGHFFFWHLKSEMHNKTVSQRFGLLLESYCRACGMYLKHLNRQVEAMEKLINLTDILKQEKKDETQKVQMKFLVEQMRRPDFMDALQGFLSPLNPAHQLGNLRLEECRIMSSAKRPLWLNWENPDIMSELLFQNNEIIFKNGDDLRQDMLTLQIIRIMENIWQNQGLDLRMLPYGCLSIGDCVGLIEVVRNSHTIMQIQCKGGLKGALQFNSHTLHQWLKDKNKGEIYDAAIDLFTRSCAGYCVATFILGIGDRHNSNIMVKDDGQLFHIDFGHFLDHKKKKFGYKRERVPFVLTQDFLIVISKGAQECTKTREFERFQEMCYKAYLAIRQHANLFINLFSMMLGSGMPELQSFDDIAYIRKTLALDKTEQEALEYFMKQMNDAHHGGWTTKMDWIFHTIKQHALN
Chain of p110α/p85α (P27986 whole entry partner): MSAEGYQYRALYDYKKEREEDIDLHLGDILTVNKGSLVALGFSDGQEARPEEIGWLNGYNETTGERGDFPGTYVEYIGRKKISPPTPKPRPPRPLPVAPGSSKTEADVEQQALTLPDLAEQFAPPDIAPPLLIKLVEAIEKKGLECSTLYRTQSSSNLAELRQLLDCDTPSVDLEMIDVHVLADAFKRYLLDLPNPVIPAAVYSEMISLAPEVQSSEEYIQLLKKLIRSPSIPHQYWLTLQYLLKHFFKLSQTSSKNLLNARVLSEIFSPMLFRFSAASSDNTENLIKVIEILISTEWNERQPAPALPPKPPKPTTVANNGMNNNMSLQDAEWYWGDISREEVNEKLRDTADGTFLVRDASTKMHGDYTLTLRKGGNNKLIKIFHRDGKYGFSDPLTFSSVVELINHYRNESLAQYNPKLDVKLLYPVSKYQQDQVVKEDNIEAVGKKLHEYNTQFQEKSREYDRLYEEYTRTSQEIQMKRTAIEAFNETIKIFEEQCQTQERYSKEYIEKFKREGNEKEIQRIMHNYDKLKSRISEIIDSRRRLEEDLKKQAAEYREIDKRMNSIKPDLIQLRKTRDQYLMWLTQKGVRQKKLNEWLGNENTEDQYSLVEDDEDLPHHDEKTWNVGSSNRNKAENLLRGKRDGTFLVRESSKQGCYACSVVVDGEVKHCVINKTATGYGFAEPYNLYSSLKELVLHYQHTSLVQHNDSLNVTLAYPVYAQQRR
Description: as §1
In assay [3] the target is p110β/p85α (Homo sapiens (Human), UniProt P42338). Kind of assay: PI 3-Kinase (human) HTRF assay, p110β/p85α. In general terms: Time-resolved FRET reads energy transfer from a long-lived donor to a nearby acceptor.
Chain of p110β/p85α (P42338 whole entry): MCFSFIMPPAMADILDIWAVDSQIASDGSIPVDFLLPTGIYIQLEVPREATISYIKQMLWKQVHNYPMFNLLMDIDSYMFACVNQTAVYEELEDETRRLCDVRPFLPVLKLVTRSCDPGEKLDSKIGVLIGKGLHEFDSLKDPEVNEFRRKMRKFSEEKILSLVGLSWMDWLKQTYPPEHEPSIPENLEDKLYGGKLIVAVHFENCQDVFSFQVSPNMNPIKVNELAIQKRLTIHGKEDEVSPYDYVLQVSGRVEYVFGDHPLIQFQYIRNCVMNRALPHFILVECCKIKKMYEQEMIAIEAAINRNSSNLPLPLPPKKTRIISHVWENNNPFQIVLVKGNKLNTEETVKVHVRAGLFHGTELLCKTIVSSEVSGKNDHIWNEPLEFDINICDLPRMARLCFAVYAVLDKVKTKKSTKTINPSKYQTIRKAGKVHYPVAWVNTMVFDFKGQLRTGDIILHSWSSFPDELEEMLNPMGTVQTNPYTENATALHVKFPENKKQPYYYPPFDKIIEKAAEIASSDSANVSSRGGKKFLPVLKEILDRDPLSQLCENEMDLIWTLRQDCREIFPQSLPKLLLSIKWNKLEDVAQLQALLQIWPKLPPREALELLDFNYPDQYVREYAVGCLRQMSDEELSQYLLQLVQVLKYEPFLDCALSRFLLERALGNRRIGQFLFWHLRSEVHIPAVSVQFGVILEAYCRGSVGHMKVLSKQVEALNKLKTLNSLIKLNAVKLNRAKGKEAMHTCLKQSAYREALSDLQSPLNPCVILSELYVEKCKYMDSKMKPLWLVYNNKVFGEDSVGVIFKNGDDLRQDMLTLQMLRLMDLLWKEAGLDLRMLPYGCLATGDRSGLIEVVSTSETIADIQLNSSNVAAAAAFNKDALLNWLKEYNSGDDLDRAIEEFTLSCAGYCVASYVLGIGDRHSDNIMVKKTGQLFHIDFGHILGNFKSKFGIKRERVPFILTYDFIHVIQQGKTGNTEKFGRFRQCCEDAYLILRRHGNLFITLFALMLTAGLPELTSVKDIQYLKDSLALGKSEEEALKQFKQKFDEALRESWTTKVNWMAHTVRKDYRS
Chain of p110β/p85α (P27986 whole entry partner): as the sequence (P27986 whole entry partner) above
The target in assay [4] is p110δ/p85α (Homo sapiens (Human), UniProt O00329). Kind of assay: PI 3-Kinase (human) HTRF assay, p110δ/p85α.
Chain of p110δ/p85α (O00329 whole entry): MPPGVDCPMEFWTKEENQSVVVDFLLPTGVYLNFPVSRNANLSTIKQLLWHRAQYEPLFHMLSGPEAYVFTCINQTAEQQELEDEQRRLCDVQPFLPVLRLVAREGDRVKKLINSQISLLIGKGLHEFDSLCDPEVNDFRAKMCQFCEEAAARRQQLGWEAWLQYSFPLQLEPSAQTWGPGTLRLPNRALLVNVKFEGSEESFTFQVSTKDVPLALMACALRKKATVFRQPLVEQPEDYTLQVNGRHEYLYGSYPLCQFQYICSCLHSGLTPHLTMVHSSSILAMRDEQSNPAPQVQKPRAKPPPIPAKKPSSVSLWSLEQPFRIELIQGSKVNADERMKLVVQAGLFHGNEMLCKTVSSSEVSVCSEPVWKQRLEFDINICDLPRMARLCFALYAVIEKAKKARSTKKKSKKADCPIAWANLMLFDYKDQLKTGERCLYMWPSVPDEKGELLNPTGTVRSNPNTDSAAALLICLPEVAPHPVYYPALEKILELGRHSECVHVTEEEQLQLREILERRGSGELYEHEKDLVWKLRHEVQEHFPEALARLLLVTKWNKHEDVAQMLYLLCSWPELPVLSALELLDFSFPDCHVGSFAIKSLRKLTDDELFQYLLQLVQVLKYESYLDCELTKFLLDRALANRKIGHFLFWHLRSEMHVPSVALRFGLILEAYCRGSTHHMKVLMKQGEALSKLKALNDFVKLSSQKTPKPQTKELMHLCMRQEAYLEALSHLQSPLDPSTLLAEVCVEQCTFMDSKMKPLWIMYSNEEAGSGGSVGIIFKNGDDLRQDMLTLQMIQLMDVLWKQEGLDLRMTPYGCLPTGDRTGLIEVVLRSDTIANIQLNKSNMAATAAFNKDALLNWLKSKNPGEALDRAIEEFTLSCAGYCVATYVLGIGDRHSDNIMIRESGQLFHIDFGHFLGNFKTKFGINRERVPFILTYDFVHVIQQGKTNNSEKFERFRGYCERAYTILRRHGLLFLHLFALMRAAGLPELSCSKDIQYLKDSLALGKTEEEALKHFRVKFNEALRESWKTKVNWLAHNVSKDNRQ
Chain of p110δ/p85α (P27986 whole entry partner): as the sequence (P27986 whole entry partner) above
[5] abbreviates: in vitro, read-out: PI3K γ IC50.
Setting [6] is: in vitro, read-out: PI3K β IC50.
The mark [7] stands for this setting: in vitro, read-out: PI3K δ IC50.
Where [8] appears, read: in vitro, read-out: PI3K α IC50.

Chain of p110γ (P48736 whole entry): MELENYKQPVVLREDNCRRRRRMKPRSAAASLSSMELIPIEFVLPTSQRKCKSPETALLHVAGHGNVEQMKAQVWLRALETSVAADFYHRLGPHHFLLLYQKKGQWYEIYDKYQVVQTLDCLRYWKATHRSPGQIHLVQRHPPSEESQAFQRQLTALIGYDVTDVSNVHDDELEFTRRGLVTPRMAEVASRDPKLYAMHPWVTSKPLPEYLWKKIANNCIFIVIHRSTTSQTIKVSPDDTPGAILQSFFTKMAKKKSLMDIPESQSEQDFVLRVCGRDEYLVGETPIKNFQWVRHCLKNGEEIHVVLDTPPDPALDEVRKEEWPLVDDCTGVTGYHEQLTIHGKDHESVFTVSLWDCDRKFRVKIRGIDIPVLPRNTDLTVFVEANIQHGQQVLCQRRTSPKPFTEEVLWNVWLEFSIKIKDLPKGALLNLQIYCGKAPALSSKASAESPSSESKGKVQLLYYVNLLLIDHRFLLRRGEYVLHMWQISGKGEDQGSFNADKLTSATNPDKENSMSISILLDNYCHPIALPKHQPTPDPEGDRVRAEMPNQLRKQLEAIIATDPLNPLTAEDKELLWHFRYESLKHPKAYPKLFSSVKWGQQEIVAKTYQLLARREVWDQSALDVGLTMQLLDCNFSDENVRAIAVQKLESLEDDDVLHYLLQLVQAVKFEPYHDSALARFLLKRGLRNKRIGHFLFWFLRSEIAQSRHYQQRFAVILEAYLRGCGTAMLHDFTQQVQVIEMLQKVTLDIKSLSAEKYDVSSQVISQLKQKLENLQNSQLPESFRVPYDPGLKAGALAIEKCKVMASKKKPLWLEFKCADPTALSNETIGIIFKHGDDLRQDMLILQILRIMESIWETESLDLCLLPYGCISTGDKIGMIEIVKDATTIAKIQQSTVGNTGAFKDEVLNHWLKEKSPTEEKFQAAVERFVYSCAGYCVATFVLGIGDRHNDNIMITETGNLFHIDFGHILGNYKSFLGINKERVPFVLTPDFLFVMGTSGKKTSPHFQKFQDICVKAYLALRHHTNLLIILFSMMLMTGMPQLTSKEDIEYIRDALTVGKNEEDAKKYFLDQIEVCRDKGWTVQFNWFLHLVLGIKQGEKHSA

Consider `Nc1nsc2cc(-c3ccc4nccc(-c5ccncc5)c4c3)ccc12` [compound 13], for which the IC50 in assay [1] (read-out: PI3K γ IC50) was less than 1000 nM; in assay [2] (read-out: PI3K α IC50), less than 100 nM; in assay [3] (read-out: PI3K β IC50), less than 1000 nM; in assay [4] (read-out: PI3K δ IC50) it was less than 1000 nM.
On to `Nc1nc2cccc(-c3ccc4nccc(-c5ccncc5)c4c3)c2s1` [compound 17], for which the IC50 in assay [1] (read-out: PI3K γ IC50) is less than 100 nM; in assay [2] (read-out: PI3K α IC50), less than 100 nM; in assay [3] (read-out: PI3K β IC50), less than 1000 nM; in assay [4] (read-out: PI3K δ IC50) it was less than 1000 nM.
For the compound `Nc1nc2cc(-c3ccc4nccc(-c5cn[nH]c5)c4c3)ccc2o1` [compound 20], the IC50 in assay [2] (read-out: PI3K α IC50), in assay [3] (read-out: PI3K β IC50) and in assay [4] (read-out: PI3K δ IC50) was less than 100 nM in each case.
With `Nc1nc2cc(-c3ccc4ncc(N5CC(C(=O)N6CCOCC6)C5)nc4c3)ccc2o1` [compound 252], the IC50 in assay [1] (setting [5]), in assay [3] (setting [6]) and in assay [4] (setting [7]) was less than 10000 nM each time.
With `CN1CCN(C(=O)C2CN(c3cnc4ccc(-c5ccc6oc(N)nc6c5)cc4n3)C2)CC1` [compound 253], the IC50 in assay [1] (setting [5]), in assay [3] (setting [6]) and in assay [4] (setting [7]) was less than 10000 nM in each case.
Turning to `Nc1nc2cc(-c3ccc4ncn(CCCN5CCCC5)c(=O)c4c3)ccc2o1` [compound 271], the IC50 in assay [2] (setting [8]) was less than 1000 nM; in assay [3] (setting [6]) it was less than 10000 nM; in assay [4] (setting [7]), less than 10000 nM.
In the case of `Nc1nc2cc(-c3ccc4ncc(C(=O)NCCN5CCCC5)n4c3)ccc2o1` [compound 296], the IC50 in assay [2] (setting [8]) was less than 1000 nM; in assay [3] (setting [6]), less than 10000 nM; in assay [4] (setting [7]), less than 1000 nM.
In the case of `CC1(C)CN(c2cnc3ccc(-c4ccc5oc(N)nc5c4)cc3n2)CCN1` [compound 336], the IC50 in assay [2] (setting [8]) is less than 1000 nM; in assay [3] (setting [6]), less than 1000 nM; in assay [4] (setting [7]) it was less than 10000 nM.
Regarding `C[C@H]1CN(C2CN(c3cnc4ccc(-c5ccc6oc(N)nc6c5)cc4n3)C2)CCN1` [compound 350], the IC50 in assay [2] (setting [8]) is less than 100 nM; in assay [3] (setting [6]), less than 10000 nM; in assay [4] (setting [7]), less than 10000 nM.
Take `Cc1c(-c2ccc3oc(N)nc3c2)ccc2ncc(N3CCN[C@@H](C)C3)nc12` [compound 374]: the concentration for half-maximal inhibition (IC50) in assay [2] (setting [8]) was less than 1000 nM; in assay [3] (setting [6]), less than 100 nM; in assay [4] (setting [7]), less than 10000 nM.
Regarding `Nc1nc2cc(-c3ccc4ncc(C(=O)N5CC[C@@H](F)C5)n4c3)ccc2o1` [compound 475], the IC50 is less than 100 nM in assay [1] (read-out: PI3K γ In Vitro IC50), less than 100 nM in assay [2] (read-out: PI3K α In Vitro IC50) and less than 10000 nM in assay [4] (read-out: PI3K δ In Vitro IC50).
Turning to `Nc1nc2cc(-c3ccc4ncc(C(=O)N5CC[C@@H](n6cccn6)C5)n4c3)ccc2o1` [compound 477], the values for the IC50 in assay [1] (read-out: PI3K γ In Vitro IC50), in assay [2] (read-out: PI3K α In Vitro IC50) and in assay [4] (read-out: PI3K δ In Vitro IC50) were less than 1000 nM, less than 100 nM and less than 10000 nM, respectively.
Regarding `Nc1nc2cc(-c3ccc4ncc(C(=O)N5CC(n6cccn6)C5)n4c3)ccc2o1` [compound 479], the results for the IC50 in assay [1] (read-out: PI3K γ In Vitro IC50), in assay [2] (read-out: PI3K α In Vitro IC50) and in assay [4] (read-out: PI3K δ In Vitro IC50) were less than 1000 nM, less than 100 nM and less than 10000 nM, respectively.
In the case of `C[C@H]1CCCN1C(=O)c1cnc2ccc(-c3ccc4oc(N)nc4c3)cn12` [compound 482], the IC50 in assay [1] (read-out: PI3K γ In Vitro IC50) is less than 1000 nM; in assay [2] (read-out: PI3K α In Vitro IC50), less than 100 nM; in assay [4] (read-out: PI3K δ In Vitro IC50), less than 10000 nM.
On to `O=C(c1cnc2ccc(-c3cnc4[nH]ncc4c3)cn12)N1CCOCC1` [compound 492], for which the 50% inhibitory concentration (IC50) in assay [1] (read-out: PI3K γ In Vitro IC50), in assay [3] (read-out: PI3K β In Vitro IC50) and in assay [4] (read-out: PI3K δ In Vitro IC50) was less than 10000 nM in each case.
Turning to `Nc1nc2cc(-c3ccc4ncc(C(=O)N5CCC(N6CCC(F)(F)C6)C5)n4c3)ccc2o1` (centres unmarked) [compound 500], the IC50 in assay [1] (read-out: PI3K γ In Vitro IC50) was less than 10000 nM; in assay [2] (read-out: PI3K α In Vitro IC50) it was less than 1000 nM; in assay [4] (read-out: PI3K δ In Vitro IC50), less than 10000 nM.
Take `Nc1nc2cc(-c3ccc4ncc(C(=O)N5CC(N6CCC(F)(F)C6)C5)n4c3)ccc2o1` [compound 502]: the results for the IC50 in assay [1] (read-out: PI3K γ In Vitro IC50), in assay [2] (read-out: PI3K α In Vitro IC50) and in assay [4] (read-out: PI3K δ In Vitro IC50) were less than 1000 nM, less than 100 nM and less than 10000 nM, respectively.
`COc1ncc(-c2ccc3ncc(C(=O)N4CCOCC4)n3c2)c2cn[nH]c12` [compound 517]: the figures for the IC50 in assay [1] (read-out: PI3K γ In Vitro IC50), in assay [2] (read-out: PI3K α In Vitro IC50) and in assay [4] (read-out: PI3K δ In Vitro IC50) were less than 10000 nM, less than 1000 nM and less than 10000 nM, respectively.

In general, IC50 refers to the concentration at which inhibition is half-maximal.
